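Protocol summary: plate cells (96-well), add compound at 5 concentrations, incubate 48 h, interpolate endpoints linearly. GI50 = concentration required for 50% inhibition of growth.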 The source made the active and inactive calls. Cut-off read from the data, not from the text of the source: active = GI50 up to about 1.1 µM and inactive = higher.
What was measured:
Assay in all cases: growth of human tumour cells (NCI), 48 h
T47D = tested on: T47D
OVCAR-3 = tested on: OVCAR-3
A498 = tested on: A498
UACC-257 = tested on: UACC-257
MDA-MB-435 = tested on: MDA-MB-435
U-251 = tested on: U-251
SF-295 = tested on: SF-295
SF-539 = tested on: SF-539
SNB-19 = tested on: SNB-19
NCI/ADR-RES = tested on: NCI/ADR-RES
786-0 = tested on: 786-0
NCI-H522 = tested on: NCI-H522
SF-268 = tested on: SF-268
NCI-H460 = tested on: NCI-H460
MDA-MB-231 = tested on: MDA-MB-231
OVCAR-5 = tested on: OVCAR-5
SN12C = tested on: SN12C
M14 = tested on: M14
SK-OV-3 = tested on: SK-OV-3

SMILES	GI50 (T47D)	GI50 (OVCAR-3)	GI50 (A498)	GI50 (UACC-257)	GI50 (MDA-MB-435)	GI50 (U-251)	GI50 (SF-295)	GI50 (SF-539)	GI50 (SNB-19)	GI50 (NCI/ADR-RES)	GI50 (786-0)	GI50 (NCI-H522)	GI50 (SF-268)	GI50 (NCI-H460)	GI50 (MDA-MB-231)	GI50 (OVCAR-5)	GI50 (SN12C)	GI50 (M14)	GI50 (SK-OV-3)
Cc1nc2ccc(F)cc2c2c1CCN2c1ccccc1	23.7 µM (inactive)	30.5 µM (inactive)	27.6 µM (inactive)	18.2 µM (inactive)	14.1 µM (inactive)	26 µM (inactive)	11.7 µM (inactive)	21 µM (inactive)	32.8 µM (inactive)	18.3 µM (inactive)	23 µM (inactive)	17.8 µM (inactive)	23.3 µM (inactive)	13.5 µM (inactive)					
CCc1[nH]c(=O)c2oc3cc4ccccc4cc3c2c1C(=O)O		> 10 µM (inactive)		> 10 µM (inactive)			> 10 µM (inactive)	> 10 µM (inactive)	> 10 µM (inactive)	> 10 µM (inactive)	> 10 µM (inactive)	> 10 µM (inactive)	> 10 µM (inactive)	> 10 µM (inactive)	0.00588 µM (active)	> 10 µM (inactive)	> 10 µM (inactive)	> 10 µM (inactive)	
O=C(NN=C1NCCCCN1)Nc1ccc(Cl)cc1	> 100 µM (inactive)	> 100 µM (inactive)	> 100 µM (inactive)	> 100 µM (inactive)	> 100 µM (inactive)	> 100 µM (inactive)	> 100 µM (inactive)	> 100 µM (inactive)	> 100 µM (inactive)	> 100 µM (inactive)	> 100 µM (inactive)	> 100 µM (inactive)	93.1 µM (inactive)	> 100 µM (inactive)		> 100 µM (inactive)			> 100 µM (inactive)
C[C@H]1CC(=O)C[C@@H]2CC[C@@H]3[C@H](CC[C@]4(C)C(OC(=O)c5cccc6c(=O)c7ccccc7[nH]c56)CC[C@@H]34)[C@]21C (stereo not given in full)	32.7 µM (inactive)	47.2 µM (inactive)	30.1 µM (inactive)	32.6 µM (inactive)	36.4 µM (inactive)	33.1 µM (inactive)	38.5 µM (inactive)	> 100 µM (inactive)	> 100 µM (inactive)	20.4 µM (inactive)	48 µM (inactive)	18.7 µM (inactive)	57.5 µM (inactive)	26.7 µM (inactive)	23.6 µM (inactive)	> 100 µM (inactive)	46 µM (inactive)	30.6 µM (inactive)	16.3 µM (inactive)
CN1CCC2(CC1)/C(=N/C1CCCCC1)NC(=S)N2c1ccccc1	> 100 µM (inactive)		> 100 µM (inactive)	> 100 µM (inactive)	> 100 µM (inactive)	> 100 µM (inactive)	> 100 µM (inactive)	> 100 µM (inactive)	> 100 µM (inactive)	> 100 µM (inactive)	> 100 µM (inactive)		> 100 µM (inactive)	> 100 µM (inactive)	> 100 µM (inactive)	> 100 µM (inactive)	> 100 µM (inactive)	> 100 µM (inactive)	> 100 µM (inactive)
CCC(=O)NCC1(c2c[nH]c3ccccc23)SCCS1		> 100 µM (inactive)	> 100 µM (inactive)	> 100 µM (inactive)		> 100 µM (inactive)	> 100 µM (inactive)	> 100 µM (inactive)	> 100 µM (inactive)		> 100 µM (inactive)	> 100 µM (inactive)	> 100 µM (inactive)	> 100 µM (inactive)		> 100 µM (inactive)	> 100 µM (inactive)	> 100 µM (inactive)	> 100 µM (inactive)

Reference: ChEMBL document CHEMBL1201862, “PubChem BioAssay data set” (2004)
